According to PMC12375970, “Probing the extent of importin‐α targeting of the TAF8 NLS by eliminating its cationic net‐charge” (Protein Science : A Publication of the Protein Society, 2025):
Ends that are not written are not given here.

Tests used:
[1] = molecular target: T1, mImpα2 (Mus musculus, UniProt P52293); assay: Apparent NLS–mImpα2 complex stability monitored by CD (thermal denaturation); format: binding; conditions: for T°: CD thermal denaturation of mImpα2 in the presence of the ligand (mImpα2 alone 36.35); for ∆H°u (T°): CD thermal denaturation of mImpα2 with ligand, Van't Hoff method; for ΔG°u (25°C) / ΔG°u (37°C) / ΔΔG°u (25°C) / ΔΔG°u (37°C): CD; for ΔG°u (25°C) / ΔG°u (37°C): mImpα2 with ligand; for ΔΔG°u (25°C) / ΔΔG°u (37°C): relative to mImpα2 alone
T1 construct: MImpα2, residues 70–529, was co‐crystallized with each NLS analog; His-tag; made in house; host or cells: Escherichia coli BL21 (DE3)
Procedure: In the presence of TAF8 NLS, mImpα2 was stabilized, evidenced by the increase in temperature denaturation, shift in stability curves, and the reduction of the unfolded state (Figures S5a–c and 5a). The analogs also stabilized mImpα2, albeit to a lesser extent than TAF8 NLS.
CD measurements were conducted as previously described, including the determination of free energy using the Van't Hoff method (Jean‐Francois et al. [2003]). Fitting details are in Data S1.

[2] = molecular target: T1, mImpα2; assay: Microscale thermophoresis (MST); format: binding; conditions: for Hill Coeff.: Hill equation fit, mean ± SD of three experiments; for Kd: RED-NHS-labelled mImpα2 60 nM, NLS 250 μM–7.6 nM, 20 mM Tris–HCl, 127 mM NaCl, pH 8.0, 0.5% Tween-20, mean ± SD of three experiments, read-out: KD, 1-binding site fitted model
Procedure: Microscale thermophoresis (MST) experiments were conducted using the Monolith NT.115 (Nanotemper, Germany). The RED‐NHS 2nd generation Nanotemper labeling kit (MO‐L011) was used to label mImpα2 in 20 mM Tris–HCl and 127 mM NaCl at pH 8.0. Ten microliter of RED‐NHS‐reacted mImpα2 at 60 nM was titrated against a serial 1:1 dilution (250 μM–7.6 nM) of 10 μL of NLS containing 0.5% Tween‐20, and the mixture was pipetted into 16 MST capillaries contained in a single cartridge. The samples were processed using default settings and followed the manufacturer's protocol. The binding model fits are detailed in Data S1.
A two-binding site and Hill fitting model were also performed by using the following equation in GraphPad. The experiments were repeated three times and the calculated affinity values were reported as the mean equilibrium KD ± standard deviation.
One binding site equation [11]:
Y= Et+Lt+KD- (Et+Lt+KD)2- 4EtLt2Et
Where Lt is the total ligand concentration; protein concentration is Et; KD is the dissociation constant or binding affinity.
Two binding site equation [11]: […]
Where KD1and KD2are the dissociation constants for binding site 1 and 2.
Where L is known, and cooperativity is explicitly reported as the Hill coefficient (n) […].

[3] = test system: Hela cells; assay: Fluorescence microscopy of nuclear localization of EGFP-NLS constructs, Hela; format: cell-based; conditions: Hela cells transfected with pCIneoEGFP constructs (EGFP fusions), 24 h post-transfection
Procedure: The plasmids, cloning, and cell culture transfection methods are described in Data S1. Cells were fixed with 3% paraformaldehyde (Electron Microscopy Sciences, Cat#15710) for 15 min at room temperature; then rinsed thoroughly with PBS. Nuclear staining was performed using 1 μg/mL DAPI (Sigma, Cat#D9542) in PBS. Following staining, cells were rinsed again with PBS and mounted with glass coverslips using Vectashield Antifade Mounting Medium (Vector Laboratories, Cat#H‐1000).
Fluorescence imaging was performed using a Zeiss AxioImager.M2 microscope (RRID:SCR_024706) equipped with a 40× EC Plan‐NeoFluar (1.3 NA; oil) objective, X‐Cite XYLIS LED illumination system, and a Zeiss AxioCam mRm CCD monochrome camera. Image acquisition and initial processing were performed using ZEN Blue software (RRID:SCR_013672), and additional analyses were performed using Fiji (ImageJ; RRID:SCR_002285). For each experimental condition, 15 randomly selected fields of view were imaged. Line overlay fluorescence intensity was quantified using the line profile tool in Fiji. A straight line across the entire cell length was drawn and centered on the nucleus. The “Plot Profile” function was used to extract pixel intensity values along the line. Three cells were analyzed per condition, and the data were presented as mean fluorescence intensity values. […]

[4] = Solubility of the synthesized peptides in water; conditions: synthesized peptide
[5] = molecular target: importin‐α; conditions: 1:1 stoichiometry; ref Trowitzsch et al. [2015]; read-out: Dissociation constant (KD) by ITC; cited from earlier work
From the text: The general transcription factor TFIID is essential for RNA polymerase II transcription initiation in eukaryotic cells. This megadalton protein complex, composed of several TATA‐binding‐associated factors (TAFs), is assembled into a functional transcription factor in the nucleus (Thomas and Chiang [2006]). […] The Berger group recently elucidated how an essential TFIID subcomplex consisting of TAF2, TAF8, and TAF10 is assembled in the cytoplasm (Trowitzsch et al. [2015]). […] Trowitzsch et al. originally reported K D value for TAF8 NLS of ~10 μM with 1:1 stoichiometry (Trowitzsch et al. [2015]). […] In c ...

| T° [1] [°C] | ∆H°u (T°) [1] [kcal/mol] | ΔG°u (25°C) [1] [kcal/mol] | ΔG°u (37°C) [1] [kcal/mol] | ΔΔG°u (25°C) [1] [kcal/mol] | ΔΔG°u (37°C) [1] [kcal/mol] | Hill Coeff. [2] | Kd [2] [µM] | Substance | Nuclear localization (fluorescence) [3] | Soluble in H20 [4] | Kd [5] [µM] |
| --- | --- | --- | --- | --- | --- | --- | --- | --- | --- | --- | --- |
| 37.15 | 87.9 | 3.2 | 0.1 | 0.7 | 0.3 | 0.64 ± 0.24 | 16.7 ± 1.96 | PVKKEKIDE [A4] | outperformed A3 in promoting nuclear localization | – | – |
| – | – | – | – | – | – | – | 13.8 ± 2.31 | EVKKPKIDE [A1] | – | – | – |
| 40.55 | 94.9 | 4.3 | 1.1 | 1.8 | 1.3 | 0.71 ± 0.30 | 10.6 ± 2.14 | H-PEKKPKIDE-OH [A3] | – | – | – |
| 47.45 | 170 | 11.1 | 5.4 | 8.6 | 5.6 | 3.1 ± 0.39 | 1.21 ± 0.313 | PVKKPKIRR [TAF8] | – | Yes | ~10 |

| Substance | T° [1] [°C] | ∆H°u (T°) [1] [kcal/mol] | ΔG°u (25°C) [1] [kcal/mol] | ΔG°u (37°C) [1] [kcal/mol] | ΔΔG°u (25°C) [1] [kcal/mol] | ΔΔG°u (37°C) [1] [kcal/mol] | Hill Coeff. [2] | Kd [2] [µM] | Nuclear localization (fluorescence) [3] | Soluble in H20 [4] | Kd [5] [µM] |
| --- | --- | --- | --- | --- | --- | --- | --- | --- | --- | --- | --- |
| PVKKEKIEE [A2] | – | – | – | – | – | – | – | 15.9 ± 3.1 | – | Yes | – |
